Source: US20250289800A1, “Selective Parp1 Inhibitor And Application Thereof” (Kangbaida (Sichuan) Biotechnology Co., Ltd., priority 2021, published 2025)

Experiments:
MDA-MB-436 cells = experiment: MDA-MB-436 cell proliferation inhibition experiment; type: cell-based; settings: Homo sapiens, 168 h, 7 d, Celltiter Glo
Protocol: Human breast cancer cell line MDA-MB-436 (supplier: ATCC, Cat #HTB-130) was cultured in an L15 medium containing 10% FBS and 1% penicillin-streptomycin solution at 37° C. and 5% CO2. By means of cell counting, 400 MDA-MB-436 cells were seeded into each well of a 384-well plate and cultured overnight. […] Moreover, blank control wells containing 0.1% DMSO were set. The cells were cultured at 37° C. and 5% CO2 for 7 d, a Celltiter Glo assay kit detection solution was then added, and the chemiluminescence values were determined using a microplate reader. The IC50 value was calculated using GraphPad Prism 8 software.

DLD-1 BRCA2−/− cells = experiment: DLD-1 BRCA2−/− cell proliferation inhibition experiment; type: cell-based; settings: Homo sapiens, 168 h, 7 d, CellTiter-Glo
Protocol: 3.1 DLD-1 BRCA2^−/− Cell Proliferation Inhibition Experiment Epithelial cell line DLD-1 BRCA2^−/− from human colorectal adenocarcinoma (Horizon Discovery Ltd., Cat No.: HD105-007) was cultured in an RPMI-1640 medium containing 10% FBS, 1% penicillin-streptomycin solution, 1% L-G and 0.1 mg/mL hygromycin at 37° C. and 5% CO2. By means of cell counting, 1000 DLD-1 BRCA2^−/− cells were seeded into each well of a 96-well plate and cultured overnight. Test compounds (2-fold gradient dilution, starting at the highest dose: 10 μM, a total of 9 gradient concentrations) were added the next day. Moreover, blank control wells containing DMSO at the same concentration were set. The cells were cultured at 37° C. and 5% CO2 for 7 d, CellTiter-Glo® Reagent was then added, and the chemiluminescence values were determined using a microplate reader. The IC50 value was calculated using GraphPad Prism 8 software.

[1] = Pharmacokinetic test in mice; type: in vivo; settings: ICR mice, oral administration (1 mg/kg), plasma
Protocol: An appropriate amount of the test compound was precisely weighed and formulated into a 0.1 mg/mL solution with 30% DMSO and 30% HP-β-CD for intravenous injection, and the test compound was formulated into a 0.1 mg/mL solution with 0.5% MC for intragastric administration. Healthy adult male ICR mice were fasted overnight and then given the test compound via intravenous injection (0.5 mg/kg) and intragastric administration (1 mg/kg). Blood (anticoagulated with heparin sodium) was collected from the forelimb vein at different time points (0.083 h, 0.25 h, 0.5 h, 1 h, 2 h, 4 h, 8 h and 24 h) after administration. The blood samples were separated by centrifugation at 6800 g at 4° C. for 10 min to obtain plasma, and all the samples were stored at −80° C. for later testing. The concentration of the prototype drug in plasma was determined by an LC-MS/MS method, and the main pharmacokinetic parameters were calculated using Phoenix WinNonlin7.0.

[2] = system: monolayer MDCK-MDR1 cells; experiment: Bidirectional permeability evaluation with MDCK-MDR1 cell model; type: in vitro ADME; settings: 1 μM test compound, 37° C., 2 h
Protocol: In this experiment, monolayer MDCK-MDR1 cells were used and incubated in a 96-well Transwell plate. A transport buffer containing 1 μM test compound was added to an appropriate administration end well on the apical or basal side, and a DMSO-containing transport buffer was added to an appropriate receiving end well. After incubation at 37° C. for 2 h, the cell plate was removed, the samples (50 μL each) were collected from the top and bottom ends and transferred to a new 96-well plate, and the protein was precipitated by subsequently adding acetonitrile. The samples were analyzed using LC-MS/MS and the concentration of the test compound was determined. The concentration data were used to calculate the apparent permeability coefficients of the transport from the apical side to the basal side and from the basal side to the apical side of the monolayer cells so as to calculate the efflux rate. The integrity of the monolayer cells was assessed by the leakage of Lucifer Yellow after 2 h of incubation.

| SMILES | IC50 (MDA-MB-436 cells) [nM] | IC50 (DLD-1 BRCA2−/− cells) [nM] | other results |
| --- | --- | --- | --- |
| CCc1cc2ncc(CN3CCN(c4ccc(-c5cnn(C)c5)cn4)CC3)cc2[nH]c1=O [Compound 21, 3-ethyl-7-((4-(5-(1-methyl-1H-pyrazol-4-yl)pyridin-2-yl)piperazin-1-yl)methyl)-1,5-naphthyridin-2(1H)-one] | 27.8 |  |  |
| CCc1cc2ncc(CN3CCN(c4ccc(C(F)F)cn4)CC3)cc2[nH]c1=O [Compound 24, 7-((4-(5-(difluoromethyl)pyridin-2-yl)piperazin-1-yl)methyl)-3-ethyl-1,5-naphthyridin-2(1H)-one] | 8.3 |  |  |
| CCc1cc2ncc(CN3CCN(c4ccc(Cl)cn4)CC3)cc2[nH]c1=O [Compound 10, 7-((4-(5-chloropyridin-2-yl)piperazin-1-yl)methyl)-3-ethyl-1,5-naphthyridin-2(1H)-one] | 12.1 |  |  |
| CCc1cc2ncc(CN3CCN(c4ccc(C#N)nc4)CC3)cc2[nH]c1=O [Compound 4, 5-(4-((7-ethyl-6-oxo-5,6-dihydro-1,5-naphthyridin-3-yl)methyl)piperazin-1-yl)picolinonitrile] |  | 5.4 |  |
| CCc1cc2ncc(CN3CCN(c4ccc(F)cn4)CC3)cc2[nH]c1=O [Compound 3, 3-ethyl-7-((4-(5-fluoropyridin-2-yl)piperazin-1-yl)methyl)-1,5-naphthyridin-2(1H)-one] | 11.1 | 3.3 |  |
| CCc1cc2ncc(CN3CCN(c4ccc(C#N)cc4F)CC3)cc2[nH]c1=O [Compound 1, 4-(4-((7-ethyl-6-oxo-5,6-dihydro-1,5-naphthyridin-3-yl)methyl)piperazin-1-yl)-3-fluorobenzonitrile] | 12.2 | 1.7 |  |
| CCc1cc2ncc(CN3CCN(c4ccc(C(=O)NC)nc4)CC3)cc2[nH]c1=O [Comparative example 1] |  |  | AUC0-t [1]: 47560 ng·h/mL; Cmax [1]: 5410 ng/mL; T1/2 [1]: 6.25 h; MDCK-MDRII Papp (A-B) (10−6, cm/s) ([2]; apical to basal): 3.38 10−6, cm/s; MDCK-MDRII Papp (B-A) (10−6, cm/s) ([2]; basal to apical): 43.78 10−6, cm/s |
